Assays:
[1] = molecular target: T1, p38 MAPK alpha (MAPK14: Invitrogen) (Homo sapiens, UniProt Q16539); assay: Enzyme inhibition assay (FRET, Z-LYTE), p38 MAPK alpha, via activation of MAPKAP-K2; format: biochemical; conditions: read-out: IC50 values p38α enzyme
T1 construct: purchased Invitrogen

[2] = molecular target: T2, recombinant, phosphorylated p38 MAPK gamma (MAPK12:Millipore) (Homo sapiens, UniProt P53778); assay: Enzyme inhibition assay (FRET, Z-LYTE), p38 MAPK gamma; format: biochemical; conditions: read-out: IC50 values P38γ enzyme
T2 construct: purchased Millipore
T2 sequence (P53778 1-367): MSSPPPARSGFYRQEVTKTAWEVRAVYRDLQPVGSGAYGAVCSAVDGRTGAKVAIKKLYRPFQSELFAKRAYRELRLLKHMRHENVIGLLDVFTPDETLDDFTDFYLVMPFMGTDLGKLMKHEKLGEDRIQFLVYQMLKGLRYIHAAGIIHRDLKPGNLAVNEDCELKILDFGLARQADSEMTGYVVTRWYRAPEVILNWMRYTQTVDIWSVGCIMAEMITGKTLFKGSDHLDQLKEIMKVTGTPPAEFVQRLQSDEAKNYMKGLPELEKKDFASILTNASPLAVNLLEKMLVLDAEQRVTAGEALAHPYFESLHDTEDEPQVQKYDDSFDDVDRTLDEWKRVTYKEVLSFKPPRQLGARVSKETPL
Experimental: The enzyme inhibitory activity of compound was determined by fluorescence resonance energy transfer (FRET) using synthetic peptides labelled with both donor and acceptor fluorophores (Z-LYTE, Invitrogen). Briefly, recombinant, phosphorylated p38 MAPK gamma (MAPK12:Millipore) was diluted in HEPES buffer, mixed with compound at desired final concentrations and incubated for two hours at room temperature. The FRET peptide (2 μM) and ATP (100 uM) were next added to the enzyme/compound mixture and incubated for one hour. Development reagent (protease) was added for one hour prior to detection in a fluorescence microplate reader. The site-specific protease only cleaves non-phosphorylated peptide and eliminates the FRET signal. Phosphorylation levels of each reaction were calculated using the ratio of coumarin emission (donor) over fluorescein emission (acceptor) with high ratios indicating high phosphorylation and low ratios, low phosphorylation levels.

[3] = system: LPS-induced TNFα release in differentiated U937 cells; assay: LPS-induced TNF alpha release in differentiated U937 cells; format: cell-based; conditions: Homo sapiens; read-out: R-EC50 values d-U937 cells
Experimental: U937 cells, human monocytic cell line, were differentiated to macrophage-type cells by incubation with phorbol myristate acetate (PMA; 100 ng/ml) for 48 to 72 hours. Where appropriate, cells were pre-incubated with final concentrations of compound for 2 hrs. Cells were then stimulated with 0.1 μg/mL of LPS (from E. coli: O111:B4, Sigma) for 4 hrs, and the supernatant collected for determination of TNFα concentration by sandwich ELISA (Duo-set, R&D systems).

[4] = system: LPS-induced TNFα release in THP-1 cells; assay: LPS-induced TNF alpha release in THP-1 cells; format: cell-based; conditions: Homo sapiens, THP-1; LPS-induced TNFα release; read-out: IC50 values THP-1 cells
Experimental: THP-1, human monocytic cell line, was also used for this assay. THP-1 cells were stimulated with 1 μg/ml of LPS (from E. coli: O111:B4, Sigma) for 4 hrs, and the supernatant collected for determination of TNFα concentration.
THP-1 cells, a human monocytic cell line, were stimulated with 1 μg/ml of LPS (from E. coli; O111:B4, Sigma) for 4 hr and the supernatant collected for determination of TNFα concentration by sandwich ELISA (Duo-set, R&D systems). The inhibition of TNFα production was calculated at each concentration by comparison with vehicle control.

[5] = system: Differentiated U937 cells; assay: MTT assay (loss of cell viability); format: cell-based, human; conditions: loss of cell viability, 10 ug/ml
Experimental: Differentiated U937 cells were pre-incubated with compound for 4 hrs in 5% FCS or 10% FCS for 24 hrs and 72 hr. The supernatant was replaced with 200 ul of new media and 10 μL of MTT stock solution (5 mg/mL) added to each well. After 1 hr incubation, the media were removed, 200 μL of DMSO added to each well and the plates were shaken lightly for 1 hr prior to reading the absorbance at 550 nm.
The percentage loss of cell viability was calculated for each well relative to vehicle (0.5% DMSO)-treatment. Consequently an apparent increase in cell viability for drug treatment relative to vehicle is tabulated as a negative percentage.

T1 sequence (Q16539 whole entry): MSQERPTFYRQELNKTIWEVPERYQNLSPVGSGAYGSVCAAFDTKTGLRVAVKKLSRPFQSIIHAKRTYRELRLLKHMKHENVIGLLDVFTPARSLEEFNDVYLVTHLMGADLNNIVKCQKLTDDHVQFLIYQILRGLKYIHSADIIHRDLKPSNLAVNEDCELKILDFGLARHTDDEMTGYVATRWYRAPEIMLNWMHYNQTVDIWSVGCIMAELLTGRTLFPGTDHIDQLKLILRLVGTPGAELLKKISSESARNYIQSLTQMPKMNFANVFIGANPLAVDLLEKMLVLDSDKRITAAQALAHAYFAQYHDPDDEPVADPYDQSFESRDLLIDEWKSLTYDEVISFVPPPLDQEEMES

**Q.** Which IC50 [1] does the source give for `COCCC(=O)Nc1cc(COc2ccc(NC(=O)Nc3cc(C(C)(C)C)nn3-c3ccc(C)cc3)c3ccccc23)ccn1` [Example 14, N-(4-((4-(3-(3-tert-Butyl-1-p-tolyl-1H-pyrazol-5-yl)ureido)naphthalen-1-yloxy)methyl)pyridin-2-yl)-3-methoxypropanamide] here?
**A.** < 10 nM

**Q.** And the IC50 [2]?
**A.** < 500 nM

**Q.** What about the EC50 [3] of the same compound?
**A.** < 10 nM

**Q.** What about the IC50 [4] of the same compound?
**A.** < 10 nM

**Q.** What about the “MTT 4 hr” value [5] of the same compound?
**A.** − (− <30%)

**Q.** And the “MTT 24 hr” value [5]?
**A.** − (− <30%)

**Q.** What does the source list for `Cc1ccc(-n2nc(C(C)(C)C)cc2NC(=O)Nc2ccc(OCc3ccnc(NC(=O)CCCN(C)C)c3)c3ccccc23)cc1` [Example 16, N-(4-((4-(3-(3-tert-Butyl-1-p-tolyl-1H-pyrazol-5-yl)ureido)naphthalen-1-yloxy)methyl)pyridin-2-yl)-4-(dimethylamino)butanamide]?
**A.** IC50 [1]: < 500 nM; IC50 [2]: < 500 nM; EC50 [3]: < 10 nM; IC50 [4]: < 10 nM; MTT 4 hr [5]: + (+ >30% at 10 ug/ml); MTT 24 hr [5]: + (+ >30% at 10 ug/ml)

**Q.** How did the IC50 [1] turn out when `Cc1ccc(-n2nc(C(C)(C)C)cc2NC(=O)Nc2ccc(OCc3ccnc(NC(=O)CCS(C)(=O)=O)c3)c3ccccc23)cc1` [Example 17, N-(4-((4-(3-(3-tert-Butyl-1-p-tolyl-1H-pyrazol-5-yl)ureido)naphthalen-1-yloxy)methyl)pyridin-2-yl)-3-(methylsulfonyl)propanamide] was run?
**A.** < 10 nM

**Q.** What about the IC50 [2] of the same compound?
**A.** < 500 nM

**Q.** What about the EC50 [3] of the same compound?
**A.** < 10 nM

**Q.** What about the IC50 [4] of the same compound?
**A.** < 10 nM

**Q.** What about the “MTT 4 hr” value [5] of the same compound?
**A.** − (− <30%)

**Q.** And the “MTT 24 hr” value [5]?
**A.** − (− <30%)

**Q.** `Cc1ccc(-n2nc(C(C)(C)C)cc2NC(=O)Nc2ccc(OCc3ccnc(NC(=O)N4CCN(S(C)(=O)=O)C4=O)c3)c3ccccc23)cc1` [Example 18, N-(4-((4-(3-(3-tert-Butyl-1-p-tolyl-1H-pyrazol-5-yl)ureido)naphthalen-1-yloxy)methyl)pyridin-2-yl)-3-(methylsulfonyl)-2-oxoimidazolidine-1-carboxamide] was tested. Which IC50 [1] did it give?
**A.** < 500 nM

**Q.** What about the IC50 [2] of the same compound?
**A.** > 5000 nM

**Q.** What about the EC50 [3] of the same compound?
**A.** < 500 nM

**Q.** And the IC50 [4]?
**A.** < 10 nM

**Q.** What about the “MTT 4 hr” value [5] of the same compound?
**A.** − (− <30%)

**Q.** And the “MTT 24 hr” value [5]?
**A.** − (− <30%)

**Q.** `Cc1ccc(-n2nc(C(C)(C)C)cc2NC(=O)Nc2ccc(OCc3ccnc(NC(=O)CN4CCCC4)c3)c3ccccc23)cc1` [Example 22, N-(4-((4-(3-(3-tert-Butyl-1-p-tolyl-1H-pyrazol-5-yl)ureido)naphthalen-1-yloxy)methyl)pyridin-2-yl)-2-(pyrrolidin-1-yl)acetamide] was tested. Which IC50 [1] did it give?
**A.** < 10 nM

**Q.** And the IC50 [2]?
**A.** < 500 nM

**Q.** And the EC50 [3]?
**A.** < 10 nM

**Q.** And the IC50 [4]?
**A.** < 10 nM

**Q.** And the “MTT 4 hr” value [5]?
**A.** − (− <30%)

**Q.** What about the “MTT 24 hr” value [5] of the same compound?
**A.** − (− <30%)

**Q.** For `Cc1ccc(-n2nc(C(C)(C)C)cc2NC(=O)Nc2ccc(OCc3ccnc(NC(=O)CN4CCN(C)CC4)c3)c3ccccc23)cc1` [Example 23, N-(4-((4-(3-(3-tert-Butyl-1-p-tolyl-1H-pyrazol-5-yl)ureido)naphthalen-1-yloxy)methyl)pyridin-2-yl)-2-(4-methylpiperazin-1-yl)acetamide], which IC50 [1] is on record?
**A.** < 10 nM

**Q.** And the IC50 [2]?
**A.** < 500 nM

**Q.** And the EC50 [3]?
**A.** < 10 nM

**Q.** What about the IC50 [4] of the same compound?
**A.** < 10 nM

**Q.** What about the “MTT 4 hr” value [5] of the same compound?
**A.** + (+ >30% at 10 ug/ml)

**Q.** What about the “MTT 24 hr” value [5] of the same compound?
**A.** + (+ >30% at 10 ug/ml)

**Q.** `COCCN1CCN(CC(=O)Nc2cc(COc3ccc(NC(=O)Nc4cc(C(C)(C)C)nn4-c4ccc(C)cc4)c4ccccc34)ccn2)CC1` [Example 24, N-(4-((4-(3-(3-tert-Butyl-1-p-tolyl-1H-pyrazol-5-yl)ureido)naphthalen-1-yloxy)methyl)pyridin-2-yl)-2-(4-(2-methoxyethyl)piperazin-1-yl)acetamide] was tested. Which IC50 [1] did it give?
**A.** < 10 nM

**Q.** What about the IC50 [2] of the same compound?
**A.** < 500 nM

**Q.** What about the EC50 [3] of the same compound?
**A.** < 10 nM

**Q.** What about the IC50 [4] of the same compound?
**A.** < 10 nM

**Q.** And the “MTT 4 hr” value [5]?
**A.** − (− <30%)

**Q.** And the “MTT 24 hr” value [5]?
**A.** − (− <30%)

**Q.** `CNCC(=O)Nc1cc(COc2ccc(NC(=O)Nc3cc(C(C)(C)C)nn3-c3ccc(C)cc3)c3ccccc23)ccn1` [Example 27, N-(4-((4-(3-(3-tert-Butyl-1-p-tolyl-1H-pyrazol-5-yl)ureido)naphthalen-1-yloxy)methyl)pyridin-2-yl)-2-(methylamino)acetamide] was tested. Which IC50 [1] did it give?
**A.** < 500 nM

**Q.** What about the IC50 [2] of the same compound?
**A.** < 500 nM

**Q.** And the EC50 [3]?
**A.** < 10 nM

**Q.** What about the IC50 [4] of the same compound?
**A.** < 10 nM

**Q.** What about the “MTT 4 hr” value [5] of the same compound?
**A.** − (− <30%)

**Q.** And the “MTT 24 hr” value [5]?
**A.** − (− <30%)

**Q.** With `COc1ccc(CN(C)CC(=O)Nc2cc(COc3ccc(NC(=O)Nc4cc(C(C)(C)C)nn4-c4ccc(C)cc4)c4ccccc34)ccn2)cc1` [Example 28, N-(4-((4-(3-(3-tert-Butyl-1-p-tolyl-1H-pyrazol-5-yl)ureido)naphthalen-1-yloxy)methyl)pyridin-2-yl)-2-((4-methoxybenzyl)(methyl)amino)acetamide] as the compound, how does the IC50 [1] read?
**A.** < 500 nM

**Q.** What about the IC50 [2] of the same compound?
**A.** < 5000 nM

**Q.** What about the EC50 [3] of the same compound?
**A.** < 10 nM

**Q.** What about the IC50 [4] of the same compound?
**A.** < 10 nM

**Q.** What about the “MTT 4 hr” value [5] of the same compound?
**A.** − (− <30%)

**Q.** What about the “MTT 24 hr” value [5] of the same compound?
**A.** − (− <30%)

**Q.** `COCCSCC(=O)Nc1cc(COc2ccc(NC(=O)Nc3cc(C(C)(C)C)nn3-c3ccc(C)cc3)c3ccccc23)ccn1` [Example 29, N-(4-((4-(3-(3-tert-Butyl-1-p-tolyl-1H-pyrazol-5-yl)ureido)naphthalen-1-yloxy)methyl)pyridin-2-yl)-2-(2-methoxyethylthio)acetamide] was tested. Which IC50 [1] did it give?
**A.** < 500 nM

**Q.** And the IC50 [2]?
**A.** < 500 nM

**Q.** What about the EC50 [3] of the same compound?
**A.** < 10 nM

**Q.** And the IC50 [4]?
**A.** < 10 nM

**Q.** What about the “MTT 4 hr” value [5] of the same compound?
**A.** − (− <30%)

**Q.** And the “MTT 24 hr” value [5]?
**A.** − (− <30%)

**Q.** `COCCOCCSCC(=O)Nc1cc(COc2ccc(NC(=O)Nc3cc(C(C)(C)C)nn3-c3ccc(C)cc3)c3ccccc23)ccn1` [Example 30, N-(4-((4-(3-(3-tert-Butyl-1-p-tolyl-1H-pyrazol-5-yl)ureido)naphthalen-1-yloxy)methyl)pyridin-2-yl)-2-(2-(2-methoxyethoxy)ethylthio)acetamide] was tested. Which IC50 [1] did it give?
**A.** < 500 nM

**Q.** And the IC50 [2]?
**A.** < 500 nM

**Q.** And the EC50 [3]?
**A.** < 10 nM

**Q.** And the IC50 [4]?
**A.** < 10 nM

**Q.** What about the “MTT 4 hr” value [5] of the same compound?
**A.** − (− <30%)

**Q.** What about the “MTT 24 hr” value [5] of the same compound?
**A.** − (− <30%)

**Q.** What does the source list for `Cc1ccc(-n2nc(C(C)(C)C)cc2NC(=O)Nc2ccc(OCc3ccnc(NC(=O)CSCCN4CCOCC4)c3)c3ccccc23)cc1` [Example 31, N-(4-((4-(3-(3-tert-Butyl-1-p-tolyl-1H-pyrazol-5-yl)ureido)naphthalen-1-yloxy)methyl)pyridin-2-yl)-2-(2-morpholinoethylthio)acetamide]?
**A.** IC50 [1]: < 500 nM; IC50 [2]: < 500 nM; EC50 [3]: < 10 nM; IC50 [4]: < 10 nM; MTT 4 hr [5]: − (− <30%); MTT 24 hr [5]: + (+ >30% at 10 ug/ml)

**Q.** What does the source list for `Cc1ccc(-n2nc(C(C)(C)C)cc2NC(=O)Nc2ccc(OCc3ccnc(NC(=O)CS(=O)(=O)CCN4CCOCC4)c3)c3ccccc23)cc1` [Example 32, N-(4-((4-(3-(3-tert-Butyl-1-p-tolyl-1H-pyrazol-5-yl)ureido)naphthalen-1-yloxy)methyl)pyridin-2-yl)-2-(2-morpholinoethylsulfonyl)acetamide]?
**A.** IC50 [1]: < 10 nM; IC50 [2]: < 500 nM; EC50 [3]: < 10 nM; IC50 [4]: < 500 nM; MTT 4 hr [5]: − (− <30%); MTT 24 hr [5]: − (− <30%)

**Q.** With `COCCN(CCOC)CC(=O)Nc1cc(COc2ccc(NC(=O)Nc3cc(C(C)(C)C)nn3-c3ccc(C)cc3)c3ccccc23)ccn1` [Example 33, 2-(Bis(2-methoxyethyl)amino)-N-(4-((4-(3-(3-tert-butyl-1-p-tolyl-1H-pyrazol-5-yl)ureido)naphthalen-1-yloxy)methyl)pyridin-2-yl)acetamide] as the compound, how does the IC50 [1] read?
**A.** < 10 nM

**Q.** What about the IC50 [2] of the same compound?
**A.** < 5000 nM

**Q.** What about the EC50 [3] of the same compound?
**A.** < 10 nM

**Q.** What about the IC50 [4] of the same compound?
**A.** < 10 nM

**Q.** What about the “MTT 4 hr” value [5] of the same compound?
**A.** − (− <30%)

**Q.** What about the “MTT 24 hr” value [5] of the same compound?
**A.** − (− <30%)

Reference: patent publication US8299073B2, “P38 MAP kinase inhibitors” (Respivert Ltd., priority 2008, dated 2012)
